This experiment has as its target T1, Recombinant human liver cathepsin-B (Homo sapiens, UniProt P07858).
T1 construct: purchased Sigma Aldrich
Briefly: Cathepsin-B cleavage testing of peptide-AMC substrates. The class given is biochemical. Particulars: for AMC fluorescence intensity change over time following addition of catB: 1 mM peptide in activation buffer pH 5, emission 440 nm. The method, then: Peptide-AMC: Recombinant human liver cathepsin-B (Sigma Aldrich) was used for the in vitro experiments. 0.25 μM DTT used in 0.25 μM HEPES in PBS (pH 5) as activation buffer. Peptides were dissolved in activation buffer to a final concentration as 1 mM. 0.5 μL of catB enzyme or vehicle control was added into the peptide solution. Plate reader analysis with Tecan Infinite M200 PRO plate reader (Mannedorf, Switzerland) with triplicates of each sample were performed in 96 well plates. The intensity of the excited dye at 388 nm was measured at 440 nm. Dual dye-labeled peptide on resin: CatB and activation buffer were prepared as described above. Dye-labeled peptides were again left on the resin. Resin was washed with methanol, dried in a vacuum overnight, and then immersed in PBS (pH 7.4) for 1 hour at 37° C. PBS was then drained followed by addition of 1 mL activation buffer and 5 μL of catB for 100 mg of resin. Control testing was performed in the same solution without the addition of catB. Supernatant was collected after 3 hours and 24 hours. The florescence intensity of triplicates of each sample was measured with plate reader FAM (λexc=485 nm, λem=535 nm) and Tamra (λexc=520 nm, λem=620 nm).
A variety of enzyme-cleavable peptide sequences used in antibody-drug and peptide-drug conjugates were tested for efficacy in the systems herein (Ref. B35, B40-B43; incorporated by reference in their entireties).
The experimentally cleavable VC-PABA sequence and a control, non-cleavable triple glycine (GGG) linker, were conjugated to a 7-amino-4-methylcoumarin (AMC) dye, useful in studying protease activity and specificity (VC-PABA-AMC and GGG-AMC) (FIGS. 9A and 9B) (Ref. B45; incorporated by reference in its entirety). The electron group of the AMC fluorophore is localized, and thus remains quenched, when linked to the VC-PABA or GGG peptide substrate. When the covalent bond between the peptide and AMC is cleaved, this group de-localizes resulting in fluorescence detected at 440 nm (excitation: 348 nm) allowing for real-time measurement of enzyme/substrate kinetics. […]

For “Valine-Citrulline-Para(aminobenzoicacid) (VC-PABA)-AMC [VC-PABA-AMC]”, the “AMC fluorescence intensity change over time following addition of catB” value is reported as “rapidly increased”.
On the same count and under the same terms, in the case of “Glycine-Glycine-Glycine (GGG)-AMC [GGG-AMC, reference compound]” it was “Neither GGG-AMC or GG-PABA-AMC showed any change in fluorophore intensity”.
Consider valine-citrulline [VC], for which the “catB cleavage efficacy among tested enzyme-cleavable peptide sequences” value (comparison of linker sequences) was “fastest and most complete cleavage”.

The values are drawn from US20180066031A1, “ENZYMATICALLY-CLEAVABLE PEPTIDE AMPHIPHILES” (The University of Chicago, priority 2016, published 2018).
